Experimental data reported in patent publication US20130040845A1, “METHOD FOR SCREENING RECEPTORS/LIGANDS INTERACTIONS” (IMMUNE DISEASE INSTITUTE, INC., priority 2010, published 2013).

Legend:
RARα receptor = molecular target: T1, RARα receptor (Homo sapiens, UniProt P10276); conditions: cited from earlier work
T1 sequence (P10276 1-462): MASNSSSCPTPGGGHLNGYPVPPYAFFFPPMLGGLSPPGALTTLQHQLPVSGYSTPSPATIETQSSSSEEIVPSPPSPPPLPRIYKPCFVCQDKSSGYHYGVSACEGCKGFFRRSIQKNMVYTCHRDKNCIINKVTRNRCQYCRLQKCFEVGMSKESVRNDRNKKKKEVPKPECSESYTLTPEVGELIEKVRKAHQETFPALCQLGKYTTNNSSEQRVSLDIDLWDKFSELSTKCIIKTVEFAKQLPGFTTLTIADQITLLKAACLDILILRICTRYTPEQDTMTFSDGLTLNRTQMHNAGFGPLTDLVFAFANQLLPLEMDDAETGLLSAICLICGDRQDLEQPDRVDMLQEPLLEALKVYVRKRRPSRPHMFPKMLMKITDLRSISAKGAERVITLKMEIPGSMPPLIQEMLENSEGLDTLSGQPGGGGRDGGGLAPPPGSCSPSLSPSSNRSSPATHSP

RARγ receptor = molecular target: T2, RARγ receptor (Homo sapiens, UniProt P13631); conditions: cited from earlier work
T2 sequence (P13631 1-454): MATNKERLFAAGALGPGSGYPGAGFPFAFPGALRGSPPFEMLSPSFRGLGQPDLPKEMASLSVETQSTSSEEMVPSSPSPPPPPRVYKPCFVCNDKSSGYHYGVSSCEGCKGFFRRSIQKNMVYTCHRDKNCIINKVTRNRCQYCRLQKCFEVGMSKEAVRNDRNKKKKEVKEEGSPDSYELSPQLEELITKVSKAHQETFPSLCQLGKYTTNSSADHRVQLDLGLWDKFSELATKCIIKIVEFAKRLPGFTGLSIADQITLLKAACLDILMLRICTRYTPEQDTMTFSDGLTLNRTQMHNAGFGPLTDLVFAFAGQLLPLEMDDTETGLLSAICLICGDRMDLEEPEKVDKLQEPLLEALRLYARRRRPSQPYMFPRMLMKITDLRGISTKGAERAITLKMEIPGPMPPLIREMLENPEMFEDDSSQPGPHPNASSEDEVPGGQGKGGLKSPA

RARβ receptor = molecular target: T3, RARβ receptor (Homo sapiens, UniProt P10826); conditions: cited from earlier work
T3 sequence (P10826 1-455): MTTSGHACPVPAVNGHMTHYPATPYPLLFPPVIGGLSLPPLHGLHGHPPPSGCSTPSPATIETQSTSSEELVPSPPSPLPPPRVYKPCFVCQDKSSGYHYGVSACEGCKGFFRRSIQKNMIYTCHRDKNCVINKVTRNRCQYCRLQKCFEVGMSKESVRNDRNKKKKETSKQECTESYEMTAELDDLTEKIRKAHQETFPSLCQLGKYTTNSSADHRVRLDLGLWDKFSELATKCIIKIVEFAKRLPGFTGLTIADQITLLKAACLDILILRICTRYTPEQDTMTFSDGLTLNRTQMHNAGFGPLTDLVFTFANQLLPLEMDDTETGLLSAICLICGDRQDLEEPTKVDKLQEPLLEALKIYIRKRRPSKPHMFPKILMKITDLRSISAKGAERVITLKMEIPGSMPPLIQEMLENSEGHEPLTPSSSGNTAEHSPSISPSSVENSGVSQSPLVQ

[1] = molecular target: T4, VWF A1 domain/GPIbα interaction (Homo sapiens, UniProt P04275+P07359); test: Single-molecule optical tweezer force-extension (pulling) assay on covalently tethered A1-GPIbα chimeric fusion polypeptide; format: binding; conditions: presence vs absence of activator, fixed pulling rate (FIG. 5D-5F)
T4 construct: human VWF A1 domain (Ile1262 to Pro1466 with pre-pro-VWF numbering); human platelet GPIbα (His1 to Arg290) were PCR-amplified; made in house; host or cells: HEK293T
Source text: In the example described herein, the inventors tethered this single polypeptide to the solid surfaces of two different microspheres using double-stranded DNA (dsDNA) handles. One end of the chimeric polypeptide was tethered to a first dsDNA handle and the other end of the polypeptide was tethered to a second dsDNA handle. The polypeptide was coupled to the dsDNA handles via S—S-bond or disulfide bridges. The free ends of the dsDNA were then linked to digoxigenin or biotin (see FIGS. 3A, 4B & 4C, 10). The dsDNA coupled A1/GPIbα polypeptide was then mixed with beads that were coated with either anti-digoxigenin or streptavidin. The inventors then manipulated the beads with a pipette and a focus laser beam from an optical tweezer to stretch out or extend the A1/GPIbα polypeptide in order to study the minute forces, in pico Newtons (pN), required to dissociate the VWF A1 domain/GPIbα interaction. […] In addition, the inventors measured the extensions of the VWF A1 domain/GPIbα polypeptide that are required to keep the extension force constant. […]
In the example, the inventors monitored the forces applied to the A1/GPIbα polypeptide that is required to extend or stretch out the polypeptide from a ligand-bound state to a ligand-unbonud state with an optical tweezer (see FIG. 8 for the ligand bound and non-ligand bound state of the A1/GPIbα polypeptide). […]

T4 sequence (P04275 1262-1466): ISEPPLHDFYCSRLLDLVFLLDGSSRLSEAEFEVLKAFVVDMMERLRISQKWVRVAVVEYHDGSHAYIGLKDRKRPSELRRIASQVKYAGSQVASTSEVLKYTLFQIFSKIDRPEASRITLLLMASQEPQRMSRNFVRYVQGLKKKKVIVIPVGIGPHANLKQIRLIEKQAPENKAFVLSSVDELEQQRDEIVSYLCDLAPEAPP
T4 sequence (P07359 17-306): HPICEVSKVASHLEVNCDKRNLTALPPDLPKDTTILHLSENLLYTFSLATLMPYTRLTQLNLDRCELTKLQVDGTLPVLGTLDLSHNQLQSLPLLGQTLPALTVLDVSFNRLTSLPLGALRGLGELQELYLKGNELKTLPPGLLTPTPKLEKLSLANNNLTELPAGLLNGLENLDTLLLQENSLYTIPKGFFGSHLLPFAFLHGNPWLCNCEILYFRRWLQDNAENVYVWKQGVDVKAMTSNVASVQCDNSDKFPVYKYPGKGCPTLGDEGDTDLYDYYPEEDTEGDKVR

Compound | Kd (RARα receptor) [nM] | Kd (RARγ receptor) [nM] | Kd (RARβ receptor) [nM] | average dissociative/unbinding force for the A1/GPIbα interaction [1]
O=C(O)c1ccc(-c2ccc3cc(O)c(C45CC6CC(CC(C6)C4)C5)cc3c2)cc1 [CD 1530, 4-(6-Hydroxy-7-tricyclo[3.3.1.13,7]dec-1-yl-2-naphthalenyl) benzoic acid] | 2750 | 150 | 1500 | 
botrocetin |  |  |  | increased the average dissociative/unbinding force
ristocetin |  |  |  | increased the average dissociative/unbinding force
